The target of test [1] is Cyclin-dependent kinase 2/G1/S-specific cyclin-E1 (Homo sapiens, UniProt P24941). As to the kind of experiment: Biochemical CDK Inhibition Assay. The procedure: (§1) nhibitory effects of the compounds of the disclosure were measured in biochemical assays that measure the enzymatic phosphorylation activity of CDK enzyme in complex of Cyclin proteins phosphorylates 7.5 micromolar fluorescently labelled peptide substrate, 5-FAM-QSPKKG-CONH2, (FL-Peptide 18, Perkin Elmer, 760362) in the presence of adenosine-5′-triphosphate (ATP) and varying concentrations of the test compound in 100 mM 2-[4-(2-hydroxyethyl)piperazin-1-yl]ethanesulfonic acid (HEPES), pH 7.5, 10 mM MgCl2, 0.015% Brij-35, 1 mM dithiothreitol (DTT), 1.0% dimethylsulfoxide (DMSO). Assays were performed at 1.0 mM ATP or at ATP Km of the CDK enzymes in complex with Cyclin proteins. Reactions proceeded until between 10% to 20% total peptides were phosphorylated at room temperature (25° C.) and were terminated with 35 mM 2,2′,2″,2′″-(ethane-1,2-diyldinitrilo)tetraacetic acid (EDTA). Product was detected using the Caliper mobility shift detection method where the phosphorylated peptide (product) and substrate were electrophoretically separated and measured. Percent activity was plotted against log concentration of compound and points to generate an apparent IC50. The following CDK enzymes in complex with different cyclin proteins were used in these assays:CDK1/Cyclin B1, GST-tag (BPS, 40454), 1.5 nM used in the assayCDK2/Cyclin E (Eurofins, 14-475), 1.25 nM used in the assays

For test [2], the target named is Cyclin-dependent kinase/G2/mitotic-specific cyclin- 1 (Homo sapiens, UniProt P06493). Briefly: Biochemical CDK Inhibition Assay. The procedure: as §1
Chain of Cyclin-dependent kinase/G2/mitotic-specific cyclin- 1 (P06493 whole entry): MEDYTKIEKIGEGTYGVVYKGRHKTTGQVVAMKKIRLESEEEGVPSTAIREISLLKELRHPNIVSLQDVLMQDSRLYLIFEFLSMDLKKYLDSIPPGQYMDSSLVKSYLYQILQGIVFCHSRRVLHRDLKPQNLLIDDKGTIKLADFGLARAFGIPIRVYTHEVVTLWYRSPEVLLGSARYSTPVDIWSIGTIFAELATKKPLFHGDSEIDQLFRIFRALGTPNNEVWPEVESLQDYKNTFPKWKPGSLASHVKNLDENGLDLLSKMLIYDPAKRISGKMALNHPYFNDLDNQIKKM
Chain of Cyclin-dependent kinase/G2/mitotic-specific cyclin- 1 (P14635 whole entry, further chain): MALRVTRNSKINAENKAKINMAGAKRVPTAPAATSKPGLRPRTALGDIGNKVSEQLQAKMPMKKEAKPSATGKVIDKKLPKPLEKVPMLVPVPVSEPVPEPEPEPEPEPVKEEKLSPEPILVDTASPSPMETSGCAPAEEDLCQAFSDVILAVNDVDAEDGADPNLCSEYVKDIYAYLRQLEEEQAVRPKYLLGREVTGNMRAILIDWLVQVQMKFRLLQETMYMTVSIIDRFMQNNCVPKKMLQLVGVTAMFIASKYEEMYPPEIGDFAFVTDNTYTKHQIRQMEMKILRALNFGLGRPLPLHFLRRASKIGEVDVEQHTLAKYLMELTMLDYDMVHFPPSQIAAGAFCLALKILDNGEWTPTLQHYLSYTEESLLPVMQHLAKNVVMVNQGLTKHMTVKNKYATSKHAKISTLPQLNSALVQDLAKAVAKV

pIC50: −log10 of the molar value.

What is called pIC50 is the IC50 on a negative log10 scale, so that one unit is a factor of ten. Read a high pIC50 as a small IC50.

Consider `Cc1nccnc1Nc1cc([C@H]2CC[C@@H](OC(=O)NC3(C)CC3)C2)[nH]n1` [US20250074895, Compound 6], for which the results for the negative logarithm of the IC50 (pIC50) in test [1] and in test [2] were more than 8.00 and less than 6.30, respectively.
For `CN(C)c1cnc(Nc2cc([C@H]3CC[C@@H](OC(=O)NC4(C)CC4)C3)[nH]n2)cn1` [US20250074895, Compound 32], in that order: more than 8.00 and less than 6.30.
`COc1cnc(Nc2cc([C@H]3CC[C@@H](OC(=O)NC4(C)CC4)C3)[nH]n2)cn1` [US20250074895, Compound 28]: the negative-log IC50 (pIC50) in test [1] was more than 8.00; in test [2] it was 6.52.
Take `CC1(NC(=O)O[C@@H]2CC[C@H](c3cc(Nc4cnc(F)cn4)n[nH]3)C2)CC1` [US20250074895, Compound 31]: the results for the pIC50 in test [1] and in test [2] were more than 8.00 and more than 7.00, respectively.
As for `CC1(NC(=O)O[C@H]2CC[C@@H](c3cc(Nc4cnccn4)n[nH]3)C2)CC1` [US20250074895, Compound 57], the figures for the pIC50 in test [1] and in test [2] were more than 8.00 and more than 7.00, respectively.
On the same counts, the results for `COc1nncc(Nc2cc([C@H]3CC[C@@H](OC(=O)NC4(C)CC4)C3)[nH]n2)n1` [US20250074895, Compound 54] are more than 8.00 and more than 7.00.
Consider `Cc1cncc(Nc2cc([C@H]3CC[C@@H](OC(=O)NC4(C)CC4)C3)[nH]n2)n1` [US20250074895, Compound 7], for which the figures for the pIC50 in test [1] and in test [2] were more than 8.00 and more than 7.00, respectively.
With `Cc1nc(CO)cnc1Nc1cc([C@H]2CC[C@@H](OC(=O)NC3(C)CC3)C2)[nH]n1` [US20250074895, Compound 47], the pIC50 in test [1] is more than 8.00; in test [2] it was less than 6.30.
Consider `CC1(NC(=O)O[C@@H]2CC[C@H](c3cc(Nc4ccncn4)n[nH]3)C2)CC1` [US20250074895, Compound 39], for which the figures for the pIC50 in test [1] and in test [2] were more than 8.00 and 6.52, respectively.
For the compound `CC1(NC(=O)O[C@@H]2CC[C@H](c3cc(Nc4cnc(S(C)(=O)=O)cn4)n[nH]3)C2)CC1` [US20250074895, Compound 35], the pIC50 in test [1] was more than 8.00; in test [2], less than 6.30.
On to `CC1(NC(=O)O[C@@H]2CC[C@H](c3cc(Nc4ccnc(C(F)F)n4)n[nH]3)C2)CC1` [US20250074895, Compound 33], for which the pIC50 in test [1] was more than 8.00; in test [2], more than 7.00.
